From patent publication US11478478B2, “2,3-disubstituted 1-acyl-4-amino-1,2,3,4-tetrahydroquinoline derivatives and their use as bromodomain inhibitors” (GLAXOSMITHKLINE INTELLECTUAL PROPERTY (NO.2) LIMITED, priority 2013, dated 2022) come the findings set out here.

The assay addresses T1, BRD4 BD2 (Homo sapiens, UniProt O60885, Y97A).
T1 construct: BRD4 (1-477) (Y97A) and (Y390A); made in house; host or cells: E. coli (pET15b vector)
The experiment in a line: TR-FRET binding assay, BRD4 BD2 (BD1-mutated protein). The settings on record: read-out: pIC50 in the BRD4 BD2 assay (converted). In short, it runs like this: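 Displacement of Alexa Fluor647-labelled bromodomain ligand (at Kd) from 10 nM His-tagged BRD4 (1-477, Y97A) read by Eu-anti-His TR-FRET (665/615 ratio) in pH 7.4 HEPES buffer, 0.5% DMSO. Compound preincubated 30 min at rt, detection ≥30 min. pIC50 derived from four-parameter fit after normalisation to controls.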
(Time-resolved FRET reads energy transfer from a long-lived donor to a nearby acceptor.)
For `COCCNC(=O)c1ccc2c(c1)[C@H](Nc1ccc(F)cn1)[C@@H](C)[C@H](C1CC1)N2C(C)=O` [Example 471, (2S,3R,4R)-1-acetyl-2-cyclopropyl-4-((5-fluoropyridin-2-yl)amino)-N-(2-methoxyethyl)-3-methyl-1,2,3,4-tetrahydroquinoline-6-carboxamide], the IC50 was 100 nM.
For `CC(=O)N1c2ccc(C(=O)NCCO)cc2[C@H](Nc2ccc(F)cn2)[C@@H](C)[C@@H]1C` [Example 479, (2S,3R,4R)-1-acetyl-4-((5-fluoropyridin-2-yl)amino)-N-(2-hydroxyethyl)-2,3-dimethyl-1,2,3,4-tetrahydroquinoline-6-carboxamide] the value was 100 nM.
As for `COCCCNC(=O)c1ccc2c(c1)[C@H](Nc1cccc(C)n1)[C@@H](C)[C@H](C1CC1)N2C(C)=O` [Example 480, (2S,3R,4R)-1-acetyl-2-cyclopropyl-N-(3-methoxypropyl)-3-methyl-4-((6-methylpyridin-2-yl)amino)-1,2,3,4-tetrahydroquinoline-6-carboxamide], the figure is 100 nM; as for `CC(=O)N1c2ccc(C(=O)NC3CCOCC3)cc2[C@H](Nc2ncccn2)[C@@H](C)[C@@H]1C1CC1` [Example 484, (2S,3R,4R)-1-acetyl-2-cyclopropyl-3-methyl-4-(pyrimidin-2-ylamino)-N-(tetrahydro-2H-pyran-4-yl)-1,2,3,4-tetrahydroquinoline-6-carboxamide], 100 nM.
Take `CC(=O)N1c2ccc(C(=O)NC3COC3)cc2[C@H](Nc2ncccn2)[C@@H](C)[C@@H]1C1CC1` [Example 488, (2S,3R,4R)-1-acetyl-2-cyclopropyl-3-methyl-N-(oxetan-3-yl)-4-(pyrimidin-2-ylamino)-1,2,3,4-tetrahydroquinoline-6-carboxamide]: the IC50 was 100 nM.
For `COCCNC(=O)c1ccc2c(c1)[C@H](Nc1ncccn1)[C@@H](C)[C@H](C1CC1)N2C(C)=O` [Example 489, (2S,3R,4R)-1-acetyl-2-cyclopropyl-N-(2-methoxyethyl)-3-methyl-4-(pyrimidin-2-ylamino)-1,2,3,4-tetrahydroquinoline-6-carboxamide] the value was 100 nM.
For `CC(=O)N1c2ccc(C(=O)NCCO)cc2[C@H](Nc2ccc(C#N)cc2)[C@@H](C)[C@@H]1C1CC1` [Example 492, (2S,3R,4R)-1-acetyl-4-((4-cyanophenyl)amino)-2-cyclopropyl-N-(2-hydroxyethyl)-3-methyl-1,2,3,4-tetrahydroquinoline-6-carboxamide] the value was 100 nM.
With `CC(=O)N1c2ccc(C(=O)NC(CO)CO)cc2[C@H](Nc2ccc(C#N)cc2)[C@@H](C)[C@@H]1C1CC1` [Example 493, (2S,3R,4R)-1-acetyl-4-((4-cyanophenyl)amino)-2-cyclopropyl-N-(1,3-dihydroxypropan-2-yl)-3-methyl-1,2,3,4-tetrahydroquinoline-6-carboxamide], the IC50 is 100 nM.
For `CC(=O)N1c2ccc(F)cc2[C@H](Nc2ncccn2)[C@@H](C)[C@@H]1C` [Example 501, 1-((2S,3R,4R)-6-fluoro-2,3-dimethyl-4-(pyrimidin-2-ylamino)-3,4-dihydroquinolin-1(2H)-yl)ethanone] the value was 100 nM; for `CC(=O)N1c2ccc(F)cc2[C@H](Nc2cccnc2C#N)[C@@H](C)[C@@H]1C1CC1` [Example 503, 3-(((2S,3R,4R)-1-acetyl-2-cyclopropyl-6-fluoro-3-methyl-1,2,3,4-tetrahydroquinolin-4-yl)amino)picolinonitrile], 1000 to 100000 nM; for `CC(=O)N1c2ccc(F)cc2[C@H](Nc2ncccc2C#N)[C@@H](C)[C@@H]1C` [Example 504, 2-(((2S,3R,4R)-1-acetyl-6-fluoro-2,3-dimethyl-1,2,3,4-tetrahydroquinolin-4-yl)amino)nicotinonitrile], 100 nM.
With `CNC(=O)c1ccc(N[C@H]2c3cc(F)ccc3N(C(C)=O)[C@@H](C)[C@@H]2C)cc1` [Example 506, 4-(((2S,3R,4R)-1-acetyl-6-fluoro-2,3-dimethyl-1,2,3,4-tetrahydroquinolin-4-yl)amino)-N-methylbenzamide], the IC50 was 100 nM.
As for `COc1ncccc1N[C@H]1c2cc(F)ccc2N(C(C)=O)[C@@H](C)[C@@H]1C` [Example 509, 1-((2S,3R,4R)-6-fluoro-4-((2-methoxypyridin-3-yl)amino)-2,3-dimethyl-3,4-dihydroquinolin-1(2H)-yl)ethanone], the figure is 100 nM; as for `CC(=O)N1c2ccc(F)cc2[C@H](Nc2ccnc(O)n2)[C@@H](C)[C@@H]1C` [Example 517, 1-((2S,3R,4R)-6-fluoro-4-((2-hydroxypyrimidin-4-yl)amino)-2,3-dimethyl-3,4-dihydroquinolin-1(2H)-yl)ethanone], 1000 to 100000 nM.
As for `CC(=O)N1c2ccc(F)cc2[C@H](Nc2cccnc2O)[C@@H](C)[C@@H]1C` [Example 518, 1-((2S,3R,4R)-6-fluoro-4-((2-hydroxypyridin-3-yl)amino)-2,3-dimethyl-3,4-dihydroquinolin-1(2H)-yl)ethanone], the figure is 100 nM; as for `CC(=O)N1c2ccc(F)cc2[C@H](Nc2ccnc(O)n2)[C@@H](C)[C@@H]1C1CC1` [Example 519, 1-((2S,3R,4R)-2-cyclopropyl-6-fluoro-4-((2-hydroxypyrimidin-4-yl)amino)-3-methyl-3,4-dihydroquinolin-1(2H)-yl)ethanone], 1000 to 100000 nM; as for `CC(=O)N1c2ccc(F)cc2[C@H](Nc2ccc(C(N)=O)cn2)[C@@H](C)[C@@H]1C1CC1` [Example 522, 6-(((2S,3R,4R)-1-acetyl-2-cyclopropyl-6-fluoro-3-methyl-1,2,3,4-tetrahydroquinolin-4-yl)amino)nicotinamide], 1000 to 100000 nM.
For `CC(=O)N1c2ccc(F)cc2[C@H](Nc2ncccc2C(N)=O)[C@@H](C)[C@@H]1C1CC1` [Example 523, 2-(((2S,3R,4R)-1-acetyl-2-cyclopropyl-6-fluoro-3-methyl-1,2,3,4-tetrahydroquinolin-4-yl)amino)nicotinamide] the value was 100 nM; for `CC(=O)N1c2ccc(F)cc2[C@H](Nc2ncccc2C(N)=O)[C@@H](C)[C@@H]1C` [Example 527, 2-(((2S,3R,4R)-1-acetyl-6-fluoro-2,3-dimethyl-1,2,3,4-tetrahydroquinolin-4-yl)amino)nicotinamide], 100 nM; for `CC(=O)N1c2ccc(F)cc2[C@H](Nc2nc(C)ccc2C(N)=O)[C@@H](C)[C@@H]1C` [Example 528, 2-(((2S,3R,4R)-1-acetyl-6-fluoro-2,3-dimethyl-1,2,3,4-tetrahydroquinolin-4-yl)amino)-6-methylnicotinamide], 100 nM.
Turning to `CC(=O)N1c2ccc(F)cc2[C@H](Nc2ccnc(O)c2)[C@@H](C)[C@@H]1C1CC1` [Example 531, 1-((2S,3R,4R)-2-cyclopropyl-6-fluoro-4-((2-hydroxypyridin-4-yl)amino)-3-methyl-3,4-dihydroquinolin-1(2H)-yl)ethanone], the IC50 is 1000 to 100000 nM.
Take `CC(=O)N1c2ccc(F)cc2[C@H](Nc2cc(O)ccn2)[C@@H](C)[C@@H]1C1CC1` [Example 532, 1-((2S,3R,4R)-2-cyclopropyl-6-fluoro-4-((4-hydroxypyridin-2-yl)amino)-3-methyl-3,4-dihydroquinolin-1(2H)-yl)ethanone]: the IC50 is 1000 to 100000 nM.
For `CC(=O)N1c2ccc(F)cc2[C@H](Nc2ccc(O)nc2)[C@@H](C)[C@@H]1C1CC1` [Example 533, 1-((2S,3R,4R)-2-cyclopropyl-6-fluoro-4-((6-hydroxypyridin-3-yl)amino)-3-methyl-3,4-dihydroquinolin-1(2H)-yl)ethanone] the value was 1000 to 100000 nM; for `CC(=O)N1c2ccc(C3=CCOCC3)cc2[C@H](Nc2ncccn2)[C@@H](C)[C@@H]1C1CC1` [Example 555, 1-((2S,3R,4R)-2-cyclopropyl-6-(3,6-dihydro-2H-pyran-4-yl)-3-methyl-4-(pyrimidin-2-ylamino)-3,4-dihydroquinolin-1(2H)-yl)ethanone], 100 nM; for `COCCn1cc(-c2ccc3c(c2)[C@H](Nc2nccc(C)n2)[C@@H](C)[C@H](C2CC2)N3C(C)=O)cn1` [Example 557, 1-((2S,3R,4R)-2-cyclopropyl-6-(1-(2-methoxyethyl)-1H-pyrazol-4-yl)-3-methyl-4-((4-methylpyrimidin-2-yl)amino)-3,4-dihydroquinolin-1(2H)-yl)ethanone], 100 nM.
As to `CC(=O)N1c2ccc(N3CCNCC3)cc2[C@H](Nc2ccc(C(N)=O)cc2)[C@@H](C)[C@@H]1C` [Example 571, 4-(((2S,3R,4R)-1-acetyl-2,3-dimethyl-6-(piperazin-1-yl)-1,2,3,4-tetrahydroquinolin-4-yl)amino)benzamide], the IC50 is 100 nM.
For `CC(=O)N1c2ccc(-c3cn[nH]c3)cc2[C@H](Nc2ncccn2)[C@@H](C)[C@@H]1C1CC1` [Example 581, 1-((2S,3R,4R)-2-cyclopropyyl-3-methyl-6-(1H-pyrazol-4-yl)-4-(pyrimidin-2-ylamino)-3,4-dihydroquinolin-1(2H)-yl)ethanone] the value was 100 nM; for `CC(=O)N1c2ccc(-c3cn[nH]c3)cc2[C@H](Nc2nccc(C)n2)[C@@H](C)[C@@H]1C1CC1` [Example 582, 1-((2S,3R,4R)-2-cyclopropyl-3-methyl-4-((4-methylpyrimidin-2-yl)amino)-6-(1H-pyrazol-4-yl)-3,4-dihydroquinolin-1(2H)-yl)ethanone], 100 nM; for `CC(=O)N1c2ccc(-c3ncc[nH]3)cc2[C@H](Nc2ncccn2)[C@@H](C)[C@@H]1C1CC1` [Example 588, 1-((2S,3R,4R)-2-cyclopropyl-6-(1H-imidazol-2-yl)-3-methyl-4-(pyrimidin-2-ylamino)-3,4-dihydroquinolin-1(2H)-yl)ethanone], 100 nM.
